Tested on: D. suzukii
Assay: Laboratory choice assays (double-choice ventilated arenas)
Format: in vivo, Drosophila suzukii
Conditions: vs flies selecting deionized water and flies not making any choice; 24 h; P<0.001
Protocol: Constant and uniform airflow was created within each of the containers using a vacuum at 1.5 L mid′ from the base and through the upper portion of each of the respective containers. Attraction to the matrix containing the ingredients of the exemplary insect control composition was verified in double-choice behavioral experiments. Arenas were prepared using 2-L transparent Griffin-style graduated low-form plastic beakers (Nalgene, Rochester, N.Y.). For each beaker, 9 ventilation holes (1 cm diameter) were cut along the circumference approximately 6 cm from the base. The holes were covered with fine white mesh in order to prevent D. suzukii individuals from escaping. The top of each beaker was drilled and connected to a 0.5 cm diameter plastic tube providing a vacuum in order to create a constant and uniform air flow (1.5 L min^−1) within the containers. Beakers were placed upside down on a flat work surface covered by white paper sheets. Two 25 mL plastic cups (Dart Container Corporation, Mason, Mich.) containing ˜10 mL of water and 5 g of arabinogalactan were placed at the base of each beaker. Both cups were covered with a wax film (Parafilm® M, Pechiney, Chicago, Ill.). 3 holes (˜0.3 cm diameter) were cut on the film coverings in order to allow the flies to enter the cups. […]

For arabinogalactan, the “number of flies selecting deli cups containing arabinogalactan” value was “significantly higher”.

Source: US20210321627A1, “NON-PESTICIDAL ATTRACT AND KILL COMPOSITION FOR CONTROL OF INSECTS” (Oregon State University, priority 2018, published 2021)
